# Values quoted from earlier work in patent US10513689B2, “Culture media for multipotent stem cells” (Hope Biosciences LLC, priority 2016, dated 2019).
# System: MSCs
# Details: Tamama et al., 2010
substance,measurement,value
"EGF: Epidermal growth factor, mitogen of MSCs",increase in the number of colony-forming units,25%
